Results reported in patent publication US20100197688A1, “EPHA4 RTK INHIBITORS FOR TREATMENT OF NEUROLOGICAL AND NEURODEGENERATIVE DISORDERS AND CANCER” (priority 2008, published 2010).

How the values were obtained:
EphA4 kinase = target: T1, EphA4 kinase (Homo sapiens, UniProt P54764); test: EphA4 kinase enzymatic assay (TR-FRET); type: biochemical; settings: for IC50: 25 μM ATP, recombinant His6-TEV-EphA4 (aa. 615-911); for EphA4 Kinase max inhibition in %: maximum percent inhibition (value in parentheses)
T1 construct: His6-TEV-EphA4 (36 KD) (aa. 615-911); His6 (N); TEV cleavage site (N); made in house; host or cells: Sf9 (baculovirus)
T1 sequence (P54764 615-911): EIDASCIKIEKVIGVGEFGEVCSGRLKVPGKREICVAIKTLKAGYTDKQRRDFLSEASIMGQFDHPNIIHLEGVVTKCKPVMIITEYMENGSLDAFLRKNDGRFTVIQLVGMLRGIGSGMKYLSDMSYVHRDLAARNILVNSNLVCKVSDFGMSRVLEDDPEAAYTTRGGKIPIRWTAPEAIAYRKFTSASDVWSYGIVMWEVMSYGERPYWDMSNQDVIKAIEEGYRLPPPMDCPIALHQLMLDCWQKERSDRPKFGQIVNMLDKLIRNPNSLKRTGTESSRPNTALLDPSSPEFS
Description: Recombinant EphA4 kinase His6-TEV-EphA4 (36 KD) (aa. 615-911) was expressed in Sf9 using baculovirus expression system. Hi-tagged protein was purified by high performance liquid chromatography in two step, using a His Trap HP column and a heparin column. The potency of compounds to inhibit EphA4 kinase phosphorylation was measured by an enzymatic assay based on time resolved fluorescence energy transfer assay format (TR-FRET), using Eu-W1024 anti-pTyr antibody (Perkin Elmer, USA) as a donor and SureLight APC (Perkin Elmer, USA) as an acceptor.
Biotinylated Poly(Glu Tyr) peptide (50 nM) was incubated in 384-well with 25 μM ATP (Sigma) and 10 ng EphA4 kinase in NEBuffer (New England Biolabs) for 60 minutes at rt. The reaction was stopped by 15 mM of EDTA solution for 10 minutes at rt. The detection mixture containing 0.5 nM Eu-W1024 anti-pTyr antibody (Perkin Elmer, USA) and 50 nM SureLight APC (Perkin Elmer, USA) was added to the wells and the plate was incubated for 30 min at rt, while protected from light. Energy transfer signal was measured using a Victor 2V (excitation filter 340, emission filter 615 and 665, delay time 50 μs). Results were expressed as ratios of the absorbencies 665/615.
(§1) Compounds were titrated in duplicate at 11 points concentration starting at 100 μM with a 3 fold increment. Compounds were diluted in DMSO. […] Percentage inhibition for each compound was then calculated based on the value of the 100% inhibition. Concentration-response curves were represented and the concentrations for 50% inhibition (IC50) were calculated.

P60c-src = target: T2, P60c-src (Homo sapiens, UniProt P12931); test: Src kinase counterscreen enzymatic assay (TR-FRET); type: biochemical; settings: 0.5 μM ATP
T2 construct: purchased Upstate biotechnology, USA
T2 sequence (P12931 whole entry): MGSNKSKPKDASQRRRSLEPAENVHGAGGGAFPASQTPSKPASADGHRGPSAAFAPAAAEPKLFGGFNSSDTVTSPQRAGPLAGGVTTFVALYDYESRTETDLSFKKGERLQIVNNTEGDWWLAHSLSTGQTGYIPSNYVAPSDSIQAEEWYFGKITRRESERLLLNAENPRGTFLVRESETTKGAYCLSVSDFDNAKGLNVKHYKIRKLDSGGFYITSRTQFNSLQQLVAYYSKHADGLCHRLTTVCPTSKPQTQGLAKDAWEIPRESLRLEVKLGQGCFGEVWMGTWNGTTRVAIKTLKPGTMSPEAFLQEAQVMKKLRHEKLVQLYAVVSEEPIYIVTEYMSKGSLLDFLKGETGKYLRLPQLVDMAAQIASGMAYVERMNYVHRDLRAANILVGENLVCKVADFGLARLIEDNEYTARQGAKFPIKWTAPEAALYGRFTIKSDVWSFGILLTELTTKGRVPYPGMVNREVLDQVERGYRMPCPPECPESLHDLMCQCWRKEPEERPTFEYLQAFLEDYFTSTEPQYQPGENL
Description: Counterscreen assays were developed for the tyrosine kinases src kinase and jak2 kinase, with a format essentially identical to the EphA4 kinase TR-FRET format. Jak2 (50 ng) (Cell Signaling, USA) was incubated with 0.5 μM of biotinylated FLT3 peptide (Cell Signaling, USA) in presence of 5 μM of ATP (Sigma). P60c-src (10 U/well) (Upstate biotechnology, USA) was incubated with biotinylated Poly(Glu Tyr) peptide (100 nM) in presence of 0.5 μM of ATP. The enzymatic reaction was stopped after 60 min by adding 15 mM EDTA. The detection reaction and energy transfer signal measurements were similar to those previously described. Results were expressed as ratios of the absorbencies 665/615.
as §1

[1] = target: T3, human form of EphA4 receptor (Homo sapiens, UniProt P54764); test: EphA4 cell-based assay (pGAS-luciferase in EphA4-transfected CHO-K1 cells); settings: for IC50: inflexion point, read-out: EphA4 Cell Assay IP; for EphA4 Cell Assay maximum percent inhibition: value in parentheses
T3 construct: expressed in transfected cells; host or cells: CHO-K1, transiently transfected with EphA4 in pCMV6-XL5
T3 sequence (P54764 20-986): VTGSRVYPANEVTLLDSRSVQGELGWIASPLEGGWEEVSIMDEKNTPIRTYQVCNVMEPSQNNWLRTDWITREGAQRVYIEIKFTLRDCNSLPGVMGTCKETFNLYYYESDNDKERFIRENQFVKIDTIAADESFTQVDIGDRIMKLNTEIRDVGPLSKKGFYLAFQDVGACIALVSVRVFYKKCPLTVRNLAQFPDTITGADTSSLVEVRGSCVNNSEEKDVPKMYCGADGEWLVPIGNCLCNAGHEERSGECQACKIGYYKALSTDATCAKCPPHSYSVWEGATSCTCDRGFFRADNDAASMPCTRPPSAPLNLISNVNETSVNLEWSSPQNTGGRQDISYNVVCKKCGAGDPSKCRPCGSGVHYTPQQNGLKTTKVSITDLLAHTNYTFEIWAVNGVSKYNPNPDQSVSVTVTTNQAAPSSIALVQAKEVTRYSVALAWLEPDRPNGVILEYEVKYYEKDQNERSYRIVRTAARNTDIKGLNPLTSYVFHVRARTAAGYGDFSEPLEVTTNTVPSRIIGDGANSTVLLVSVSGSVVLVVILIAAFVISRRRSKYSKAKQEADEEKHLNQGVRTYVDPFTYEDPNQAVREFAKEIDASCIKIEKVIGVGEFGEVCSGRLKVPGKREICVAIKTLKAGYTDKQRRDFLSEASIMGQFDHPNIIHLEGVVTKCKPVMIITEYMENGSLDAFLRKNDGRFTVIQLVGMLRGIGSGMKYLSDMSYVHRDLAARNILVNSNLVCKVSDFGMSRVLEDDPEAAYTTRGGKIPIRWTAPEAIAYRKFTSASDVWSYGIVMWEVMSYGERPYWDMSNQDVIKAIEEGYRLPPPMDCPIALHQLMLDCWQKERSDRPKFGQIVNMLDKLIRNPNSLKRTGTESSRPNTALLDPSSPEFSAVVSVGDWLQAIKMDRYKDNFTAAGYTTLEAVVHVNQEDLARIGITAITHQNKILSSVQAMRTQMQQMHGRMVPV
From the text: A cell-based assay was used to measure the potency of the compounds on the human form of EphA4 receptor over-expressed in Chinese Hamster Ovary cell line, CHO-K1 cells (Merck Collection). The cell assay was based on a novel signaling pathway of EphA4, which involves activation of the tyrosine kinase Jak2 and the transcriptional activator Stat3 (39).
Reagents: The expression constructs of EphA4 were subcloned into the expression vector pCMV6-XL5 (Origene, Md., USA) (clone from Merck Kinase Library). The luciferase construct that was linked to the Stat1-responsive enhancer (pGAS-Luc) was bought from Stratagene (USA). The renilla construct that linked to an empty vector CMV was bought from Promega (USA).
(§2) Transfection and Luciferase Assay: CHO-K1 cells were plated in T-175 cell culture bottle in DMEM medium supplemented with 10% fetal bovine serum, 1 mM sodium pyruvate, 2 mM L-glutamine and 1.5 g/L sodium bicarbonate. When cell reached 70-80% confluence, transfections were performed in T-175 culture flasks, using Lipofectamine 2000™ transfection reagent (Invitrogen) according to the manufacturer's directions. For the luciferase assay CHO-K1 cells were co-transfected the next day with […] of pGAS-Luc, 70 mg of EphA4, and 5 mg of empty vector pRL-CMV, which encoded the Renilla luciferase, and was included in the transfection mix for normalization. Six hours after transfection the cells were trypsinized and plated at 4.105 cells/ml into 96 well Black/Clear Poly-D-Lysine coated plates (Biocoat) that had been pre-spotted with compounds. Cells were lysed the next day using the Reporter Lysis Buffer (Promega), and the luciferase activity was measured using the Dual Luciferase Assay (Promega) following the manufacturer's directions. The Firefly and Renilla luminescences are read consecutively on a Top-Count (Perkin-Elmer). Results are expressed as a ratio of the two luminsescence: Firefly Luciferase/Renilla Luciferase. Cell viability was assessed on parallel plates using the Cell Glo Assay (Promega) following the manufacturer's directions. Results are expressed as percent of cell death in comparison with vehicle-treated wells.
Compounds were titrated in duplicate at 10 points concentration starting at 100 μM with a 1.5 fold increment. Concentration-response curves were represented and the concentrations at the inflexion point (IP) were calculated. The maximum effect was given by the maximum percent inhibition calculated from the results of the control wells (containing only DMSO).

CHO-K1 cells = test: Cell viability (Cell Glo) in EphA4 cell assay; type: cell-based, Chinese Hamster
Description: as §2, with “Six hours after transfection the cells were trypsinized and plated at 4.105 cells/ml into 96 well Black/Clear Poly-D-Lysine coated plates (Biocoat) that had been pre-spotted with compounds.” left out

C2C12 cells = test: Toxicity (percent of cell death), C2C12 cells; type: cell-based; settings: 20 μM
Description: EphA4 kinase inhibition is assessed by both an enzymatic assay measuring the phosphorylation of a purified recombinant EphA4 kinase and a cell-based assay using the activation of pGas-Luciferase system in EphA4-transfected CHO-K1 cells. The functional effects of EphA4 RTK inhibitors on cell motility and proliferation is evaluated by the scratch wound assay. The effect of EphA4 RTK inhibitors is also directly measured on the cell confluence. The counterscreen assays (cell counterscreen, Src, Jak2 and P38α kinase) identified other potential inhibitory activities of compounds unrelated to EphA4 kinase. The toxicity is measured by the percent of cell death in the different cell assays. Values represent IC50 and IP in μM calculated from the dose-response curves. Values in parentheses give the maximum percent inhibition.

| SMILES | IC50 (EphA4 kinase) [µM] | EphA4 Kinase max inhibition in % (EphA4 kinase) [%] | IC50 (P60c-src) [µM] | IC50 [1] [µM] | EphA4 Cell Assay maximum percent inhibition [1] [%] | Max Toxicity Cell Assay % of cell death (CHO-K1 cells; at 25 μM) [% at 25 μM] | Max Toxicity C2C12 in cells % of cell death (C2C12 cells) [% 20 μM] | Max Toxicity Cell Assay % of cell death (CHO-K1 cells; at 50 μM) [% at 50 μM] |
| --- | --- | --- | --- | --- | --- | --- | --- | --- |
| Cc1ccc(NC(=O)c2cccc(C(F)(F)F)c2)cc1-c1ccc(-n2cccn2)cc1 [Example 120] | 1.59 | 70 | > 100 | 5.6 | 50 | 8 | 10 | – |
| Cc1ccc(NC(=O)c2cccc(C(F)(F)F)c2)cc1-c1ccc(O)c(NC=O)c1 [Example 133] | 4.8 | 93 | > 100 | 8.3 | 42 | – | 10 | 15 |
